As usually defined, the IC50 is the concentration needed to halve the response being measured. Low values mean higher potency, high ones lower potency.

Data on 11 compounds can be found in patent US6979681B2, “Half-sandwich ruthenium (II) compounds comprising nitrogen containing ligands for treatment of cancer” (University Court, The University of Edinburgh, priority 1999, dated 2005).

In this assay the test system is A2780 ovarian cancer cell line. Kind of assay: Cell growth inhibition of Ru compounds on A2780 ovarian cancer cell line (24-well trays, Coulter counter). Conditions: 24 hours drug exposure, further 3 days growth, cell count. Format: cell-based. Here is the method: The compounds are tested on 24-well trays. Cells growing in a flask are harvested just before they become confluent, counted using a haemocytometer and diluted down with media to a concentration of 1×10^4 cells per ml. The cells are then seeded in the 24-well trays at a density of 1×10^4 cells per well (i.e. 1 ml of the diluted cell suspension is added to each well). The cells are then left to plate down and grow for 72 hours before adding the compounds of the invention.
The Ru complexes are weighed out and made up to a concentration of 1 mg/ml with deionised water then sonicated until they go into solution. The appropriate volume of the Ru solution is added to 5 ml of media to make it up to a concentration of 100 μM for each drug. This 100 μM solution is then serially diluted to make up the 10 μM, 1 μM and 0.1 μM solutions.
The media is removed from the cells and replaced with 1 ml of the media dosed with drug. Each concentration is done in duplicate. A set of control wells are left on each plate, containing media without drug.
The cells are left exposed to the drugs for 24 hours and then washed with phosphate buffered saline before fresh media is added.
They are allowed to grow on for a further 3 days before being counted using a Coulter counter.
Preparing cells for counting:
Media is removed and 1 ml of PBS is added to the cells.
250 μl of trypsin is added and cells left in incubator for a few minutes to allow the monolayers to detach.
Once trypsinised, 250 μl of media is added to each well to neutralise the trypsin. 200 μl of this suspension is added to 10 ml of NaCl for counting.
Using the above protocol, a number of compounds of the invention were tested on A2780 ovarian cancer cell line.
In turn, “[(η^6-p-cymene)RuCl(H2NCH2CH2NH2—N,N)]^+[PF6]^− [Example 5]” gave an IC50 of 8 µM.
Turning to “[(η^6-p-cymene)RuBr(CH3CN)2]^+[PF6]^− [Example 2]”, half-maximal inhibition (IC50) was put at 8 µM. This counts as single-digit micromolar.
Turning to “[(η^6-p-cymene)RuCl(CH3CN)2]^+[PF6]^− [Example 1]”, the midpoint of inhibition, the IC50, lay at 7 µM.
With `F[P-](F)(F)(F)(F)F.[Cl][Ru-]1[NH2+]CC[NH2+]1.c1ccc(-c2ccccc2)cc1` [Example 9, [(η^6-C6H5C6H5)RuCl(H2NCH2CH2NH2—N,N)]^+[PF6]^−] the figure was 6 µM; with `COC(=O)c1ccccc1.F[P-](F)(F)(F)(F)F.[Cl][Ru-]1[NH2+]CC[NH2+]1` [Example 8, [η^6-C6H5CO2CH3)RuCl(H2NCH2CH2NH2—N,N)]^+[PF6]^−], 55 µM; with `CC[NH+]1CC[NH2+][Ru-]1[Cl].F[P-](F)(F)(F)(F)F.c1ccc(-c2ccccc2)cc1` [Example 10, {(η^6-C6H5C6H5)RuCl[H2N(CH2)2NH(CH2CH3)]}^+PF6^−], 6 µM.
`F[P-](F)(F)(F)(F)F.[Cl][Ru-]1[NH2+]CC[NH2+]1.c1ccccc1` [Example 3, [(η^6-C6H6)RuCl(H2NCH2CH2NH2—N,N)]^+[PF6]^−]: the midpoint of inhibition, the IC50, lay at 8 µM.
“[(η^6-p-cymene)RuCl2(isonicotinamide)] [Example 7]” showed an IC50 of 11 µM.
With `F[P-](F)(F)(F)(F)F.[I][Ru-]1[NH2+]CC[NH2+]1.c1ccccc1` [Example 4, [(η^6-C6H6)RuI(H2NCH2CH2NH2—N,N)]^+[PF6]^−], the IC50 was 20 µM.
With `F[P-](F)(F)(F)(F)F.F[P-](F)(F)(F)(F)F.[Cl][Ru-]1[NH2+]CC[NH+]1CCCCCC[NH+]1CC[NH2+][Ru-]1[Cl].c1ccc(-c2ccccc2)cc1.c1ccc(-c2ccccc2)cc1` (centres unmarked) [Example 11, {[η^6-C6H5C6H5)RuCl]2[H2N(CH2)2NH(CH2)6NH(CH22NH2—N,N′,N″,N′″]}^2+2PF6^−] the figure was 5 µM; with “[(η^6-p-cymene)RuI(H2NCH2CH2NH2—N, N)]^+[PF6]^− [Example 6]”, 6 µM.
